ChEMBL document CHEMBL3763135, “Synthesis and evaluation of thiophene-based guanylhydrazones (iminoguanidines) efficient against panel of voriconazole-resistant fungal isolates” (Bioorg Med Chem, 2016)
Active and inactive are the calls of the source.

Experiments:
Danio rerio [1] = species: Danio rerio; test: Toxicity against zebrafish embryo assessed as effect on eyes at 5 ug/ml measured at 96 hrs post fertilization by inverted microscopic analysis; type: organism-based; details: in vivo
Danio rerio [2] = species: Danio rerio; test: Toxicity against zebrafish embryo assessed as effect on notochord at 10 ug/ml measured at 96 hrs post fertilization by inverted microscopic analysis; type: organism-based; details: in vivo
Danio rerio [3] = species: Danio rerio; test: Toxicity against zebrafish embryo assessed as skeletal deformities at 2.5 ug/ml measured at 96 hrs post fertilization by inverted microscopic analysis; type: organism-based; details: in vivo
Danio rerio [4] = species: Danio rerio; test: Toxicity against zebrafish embryo assessed as effect on eyes at 10 ug/ml measured at 96 hrs post fertilization by inverted microscopic analysis; type: organism-based; details: in vivo
Danio rerio [5] = test: Toxicity against zebrafish embryo assessed as pericardial edema at 10 ug/ml measured at 96 hrs post fertilization by inverted microscopic analysis; type: organism-based; details: in vivo
Danio rerio [6] = species: Danio rerio; test: Toxicity against zebrafish embryo assessed as teratogenic embryos at 5 ug/ml measured at 96 hrs post fertilization by inverted microscopic analysis; type: organism-based; details: in vivo
Danio rerio [7] = species: Danio rerio; test: Toxicity against zebrafish embryo assessed as effect on eyes at 2.5 ug/ml measured at 96 hrs post fertilization by inverted microscopic analysis; type: organism-based; details: in vivo
Danio rerio [8] = test: Toxicity against zebrafish embryo assessed as pericardial edema at 2.5 ug/ml measured at 96 hrs post fertilization by inverted microscopic analysis; type: organism-based; details: in vivo
Danio rerio [9] = species: Danio rerio; test: Toxicity against zebrafish embryo assessed as normal embryos at 10 ug/ml measured at 96 hrs post fertilization by inverted microscopic analysis; type: organism-based; details: in vivo
Candida parapsilosis [10] = test: Antibiofilm activity against Candida parapsilosis C27 assessed as disruption of preformed biofilm after 24 hrs by concanavalin A-FITC-staining based fluorescence microscopic analysis; type: functional
Pichia kudriavzevii = test: Antifungal activity against Candida krusei ATCC 34135 by broth dilution method; type: functional
Danio rerio [11] = species: Danio rerio; test: Toxicity against zebrafish embryo assessed as effect on blood circulation at 2.5 ug/ml measured at 96 hrs post fertilization by inverted microscopic analysis; type: organism-based; details: in vivo
Danio rerio [12] = species: Danio rerio; test: Toxicity against zebrafish embryo assessed as unhatched embryos at 2.5 ug/ml measured at 96 hrs post fertilization by inverted microscopic analysis; type: organism-based; details: in vivo
[13] = Toxicity against zebrafish embryo assessed as dead embryos at 50 ug/ml measured at 96 hrs post fertilization by inverted microscopic analysis; type: organism-based, Danio rerio; details: read-out: Activity
[14] = Toxicity against zebrafish embryo assessed as dead embryos at 25 ug/ml measured at 96 hrs post fertilization by inverted microscopic analysis; type: organism-based, Danio rerio; details: read-out: Activity
Candida albicans [15] = test: Antifungal activity against Candida albicans CA5 by broth dilution method; type: functional
Danio rerio [16] = species: Danio rerio; test: Toxicity against zebrafish embryo assessed as effect on blood circulation at 10 ug/ml measured at 96 hrs post fertilization by inverted microscopic analysis; type: organism-based; details: in vivo
Candida parapsilosis [17] = test: Antifungal activity against Candida parapsilosis C27 by broth dilution method; type: functional; details: Lodderomyces parapsilosis
[18] = Induction of membrane damage in PC/PS/E liposome assessed as calcein release at MIC after 30 mins by fluorescence-based liposome leakage assay; type: functional
Danio rerio [19] = test: Toxicity against zebrafish embryo assessed as yolk edema at 2.5 ug/ml measured at 96 hrs post fertilization by inverted microscopic analysis; type: organism-based; details: in vivo
Danio rerio [20] = species: Danio rerio; test: Toxicity against zebrafish embryo assessed as effect on otoliths at 10 ug/ml measured at 96 hrs post fertilization by inverted microscopic analysis; type: organism-based; details: in vivo
Candida albicans [21] = test: Induction of DNA intercalation with Candida albicans genomic DNA at 25 ug/ml after 12 hrs by ethidium bromide staining based gel electrophoresis method
Danio rerio [22] = species: Danio rerio; test: Toxicity against zebrafish embryo assessed as unhatched embryos at 5 ug/ml measured at 96 hrs post fertilization by inverted microscopic analysis; type: organism-based; details: in vivo
Fusarium oxysporum = test: Antifungal activity against Fusarium oxysporum AB18 by broth dilution method; type: functional
Danio rerio [23] = species: Danio rerio; test: Toxicity against zebrafish embryo assessed as effect on tail tip at 10 ug/ml measured at 96 hrs post fertilization by inverted microscopic analysis; type: organism-based; details: in vivo
Danio rerio [24] = species: Danio rerio; test: Toxicity against zebrafish embryo assessed as effect on tail tip at 2.5 ug/ml measured at 96 hrs post fertilization by inverted microscopic analysis; type: organism-based; details: in vivo
Danio rerio [25] = test: Toxicity against zebrafish embryo assessed as pericardial edema at 5 ug/ml measured at 96 hrs post fertilization by inverted microscopic analysis; type: organism-based; details: in vivo
Candida albicans [26] = test: Antifungal activity against Candida albicans ATCC 10231 by broth dilution method; type: functional
Danio rerio [27] = test: Toxicity against zebrafish embryo assessed as yolk edema at 10 ug/ml measured at 96 hrs post fertilization by inverted microscopic analysis; type: organism-based; details: in vivo
[28] = Toxicity against zebrafish embryo assessed as dead embryos at 5 ug/ml measured at 96 hrs post fertilization by inverted microscopic analysis; type: organism-based, Danio rerio; details: read-out: Activity
Danio rerio [29] = species: Danio rerio; test: Toxicity against zebrafish embryo assessed as normal embryos at 25 ug/ml measured at 96 hrs post fertilization by inverted microscopic analysis; type: organism-based; details: in vivo
Danio rerio [30] = test: Toxicity against zebrafish embryo assessed as yolk edema at 5 ug/ml measured at 96 hrs post fertilization by inverted microscopic analysis; type: organism-based; details: in vivo
[31] = tested on: Trichophyton mentagrophytes; test: Antifungal activity against Trichophyton mentagrophytes DMT4 by broth dilution method; type: functional
Microsporum canis = test: Antifungal activity against Microsporum canis DMT2 by broth dilution method; type: functional
Danio rerio [32] = species: Danio rerio; test: Toxicity against zebrafish embryo assessed as skeletal deformities at 10 ug/ml measured at 96 hrs post fertilization by inverted microscopic analysis; type: organism-based; details: in vivo
Danio rerio [33] = species: Danio rerio; test: Toxicity against zebrafish embryo assessed as teratogenic embryos at 50 ug/ml measured at 96 hrs post fertilization by inverted microscopic analysis; type: organism-based; details: in vivo
Danio rerio [34] = species: Danio rerio; test: Toxicity against zebrafish embryo assessed as normal embryos at 50 ug/ml measured at 96 hrs post fertilization by inverted microscopic analysis; type: organism-based; details: in vivo
Danio rerio [35] = species: Danio rerio; test: Toxicity against zebrafish embryo assessed as growth retardation at 5 ug/ml measured at 96 hrs post fertilization by inverted microscopic analysis; type: organism-based; details: in vivo
Danio rerio [36] = species: Danio rerio; test: Toxicity against zebrafish embryo assessed as teratogenic embryos at 2.5 ug/ml measured at 96 hrs post fertilization by inverted microscopic analysis; type: organism-based; details: in vivo
Danio rerio [37] = species: Danio rerio; test: Toxicity against zebrafish embryo assessed as skeletal deformities at 5 ug/ml measured at 96 hrs post fertilization by inverted microscopic analysis; type: organism-based; details: in vivo
Danio rerio [38] = species: Danio rerio; test: Toxicity against zebrafish embryo assessed as head malformation at 5 ug/ml measured at 96 hrs post fertilization by inverted microscopic analysis; type: organism-based; details: in vivo
Candida albicans [39] = test: Antibiofilm activity against Candida albicans ATCC 10231 assessed as disruption of preformed biofilm after 24 hrs by concanavalin A-FITC-staining based fluorescence microscopic analysis; type: functional
Danio rerio [40] = species: Danio rerio; test: Toxicity against zebrafish embryo assessed as teratogenic embryos at 25 ug/ml measured at 96 hrs post fertilization by inverted microscopic analysis; type: organism-based; details: in vivo
Danio rerio [41] = species: Danio rerio; test: Toxicity against zebrafish embryo assessed as normal embryos at 5 ug/ml measured at 96 hrs post fertilization by inverted microscopic analysis; type: organism-based; details: in vivo
Danio rerio [42] = species: Danio rerio; test: Toxicity against zebrafish embryo assessed as teratogenic embryos at 10 ug/ml measured at 96 hrs post fertilization by inverted microscopic analysis; type: organism-based; details: in vivo
Danio rerio [43] = species: Danio rerio; test: Toxicity against zebrafish embryo assessed as effect on heart beat at 2.5 ug/ml measured at 96 hrs post fertilization by inverted microscopic analysis; type: organism-based; details: in vivo
Danio rerio [44] = species: Danio rerio; test: Toxicity against zebrafish embryo assessed as unhatched embryos at 10 ug/ml measured at 96 hrs post fertilization by inverted microscopic analysis; type: organism-based; details: in vivo
Danio rerio [45] = species: Danio rerio; test: Toxicity against zebrafish embryo assessed as effect on heart beat at 10 ug/ml measured at 96 hrs post fertilization by inverted microscopic analysis; type: organism-based; details: in vivo

Cc1ccc(-c2ccc(/C=N/NC(=N)N)s2)cc1.Cl
50%: Activity (Danio rerio [42])
80%: Activity (Danio rerio [6])
1.56 µg/mL: MIC [31] | MIC (Microsporum canis)
100%: Activity (Danio rerio [4]) | Activity (Danio rerio [5]) | mortality at 96 h, 50 ug/ml [13] | mortality at 96 h, 25 ug/ml [14] | Activity (Danio rerio [20]) | Activity (Danio rerio [25]) | Activity (Danio rerio [38])
0%: Activity (Danio rerio [1]) | Activity (Danio rerio [2]) | Activity (Danio rerio [3]) | Activity (Danio rerio [7]) | Activity (Danio rerio [9]) | Activity (Danio rerio [11]) | Activity (Danio rerio [12]) | Activity (Danio rerio [16]) | Activity (Danio rerio [19]) | Activity (Danio rerio [22]) | Activity (Danio rerio [23]) | Activity (Danio rerio [24]) | Activity (Danio rerio [27]) | Activity (Danio rerio [29]) | Activity (Danio rerio [30]) | Activity (Danio rerio [33]) | Activity (Danio rerio [34]) | Activity (Danio rerio [35]) | Activity (Danio rerio [37]) | Activity (Danio rerio [40]) | Activity (Danio rerio [41]) | Activity (Danio rerio [43]) | Activity (Danio rerio [44]) | Activity (Danio rerio [45])
7.41%: Activity (Danio rerio [8])
0.5 µg/mL: MIC (Candida albicans [15])
6.67%: Activity (Danio rerio [32]) | Activity (Danio rerio [36])
3.9 µg/mL: MIC (Candida parapsilosis [17])
3.12 µg/mL: MIC (Pichia kudriavzevii)
7%: Activity [18]
20%: mortality at 96 h, 5 ug/ml [28]
7.8 µg/mL: MIC (Fusarium oxysporum)
active: Activity (Candida albicans [21])
125 µg/mL: MBEC (Candida parapsilosis [10]) | MBEC (Candida albicans [39])
0.9 µg/mL: MIC (Candida albicans [26])

Cl.Cl.N=C(N)N/N=C/c1ccc(-c2ccc(/C=N/NC(=N)N)s2)cc1
50 µg/mL: MIC (Candida parapsilosis [17])
100%: Activity (Danio rerio [9]) | Activity (Danio rerio [41])
3.33%: mortality at 96 h, 50 ug/ml [13] | mortality at 96 h, 25 ug/ml [14]
0%: Activity (Danio rerio [1]) | Activity (Danio rerio [2]) | Activity (Danio rerio [3]) | Activity (Danio rerio [4]) | Activity (Danio rerio [5]) | Activity (Danio rerio [6]) | Activity (Danio rerio [7]) | Activity (Danio rerio [8]) | Activity (Danio rerio [11]) | Activity (Danio rerio [12]) | Activity (Danio rerio [16]) | Activity (Danio rerio [19]) | Activity (Danio rerio [20]) | Activity (Danio rerio [22]) | Activity (Danio rerio [23]) | Activity (Danio rerio [24]) | Activity (Danio rerio [25]) | Activity (Danio rerio [27]) | mortality at 96 h, 5 ug/ml [28] | Activity (Danio rerio [30]) | Activity (Danio rerio [32]) | Activity (Danio rerio [33]) | Activity (Danio rerio [35]) | Activity (Danio rerio [36]) | Activity (Danio rerio [37]) | Activity (Danio rerio [38]) | Activity (Danio rerio [40]) | Activity (Danio rerio [42]) | Activity (Danio rerio [43]) | Activity (Danio rerio [44]) | Activity (Danio rerio [45])
0.97 µg/mL: MIC (Microsporum canis)
3.9 µg/mL: MIC (Candida albicans [26]) | MIC [31]
active: Activity (Candida albicans [21])
7%: Activity [18]
96.67%: Activity (Danio rerio [29]) | Activity (Danio rerio [34])
500 µg/mL: MBEC (Candida parapsilosis [10])
0.5 µg/mL: MIC (Candida albicans [15])
25 µg/mL: MIC (Pichia kudriavzevii)
250 µg/mL: MBEC (Candida albicans [39])
> 250 µg/mL: MIC (Fusarium oxysporum)
